Laboratory results: patent US4501744A, “Substituted-aza-cytosine compounds and anti-viral uses thereof” (ens BIO LOGICALS Inc., priority 1983, dated 1985)
≈ marks a conversion by molar mass, not a printed value. Like-named read-outs stand apart in the source and are kept apart here.

Assays:
[1] = tested on: herpes simplex virus (HSV); details: disclosed in U.S. Pat. No. 4,347,360; cited from earlier work
Toxicity to host cells = format: cell-based, human; details: in the HSV test; human fetal fibroblasts; read-out: concentration up to which no evidence of toxicity was shown
[2] = tested on: herpes simplex virus (HSV); test: Plaque titration: reduction of plaque size and plaque number of herpes simplex virus in human fetal fibroblasts; format: cell-based; details: for IC25 / IC50 / IC75: Fibroblast, human fetal fibroblasts, 48 h
Procedure: Herpes simplex virus (HSV) strains were grown and titrated at 36° C. in human fetal fibroblasts derived from fetal tissues, and used for virus work before the tenth passage. Cells were grown and maintained in basal medium Eagle (BME; Auto-Pow, Flow Laboratories) supplemented with 0.112% sodium bicarbonate, 2 mM 1-glutanine, 2 mg neomycin per 100 ml and 5-20% calf serum. 5% BME, as described hereafter, indicates medium containing 5 ml of calf serum in a total volume of 100 ml.
The titer of the HSV strains is determined by a plaque titration method (Roizman & Roane, "Virology", 15, 75-79, 1961). Tissue culture dishes are seeded with cells and used for assays when approximately 75% monolayer. Volumes (0.2 ml) of logarithmic dilutions of the strain are inoculated onto each of two tissue culture dishes, and adsorbed for 1 hr. with intermittent shaking, the inoculum removed, and 2 ml of 5% BME containing 0.5% human immune serum globulin added. After a 48 hour incubation period at 36° C. in a 5% CO2 atmosphere, the overlay medium is removed and the cell sheets stained with a 0.05% aqueous crystal violet solution. The number of plaques is counted, the duplicates averaged, and the number of plaque-forming units calculated.
The compounds are tested for activity against the herpes simplex strains using a stock solution of each compound freshly prepared by dissolving 1.2 mg in BME. Appropriate dilution of each compound are made in 5% BME containing 0.5% human immune serum globulin just before usage.
Tissue culture dishes (35 by 10 mm) with approximately 75% cell monolayer are inoculated with approximately 50 plaque-forming units of HSV per 0.2 ml, and the virus adsorbed for 1 hour, with intermittent shaking. After removal of the inoculum, 2 ml of 5% BME with 0.5% immune globulin and three-fold dilutions of the appropriate drug are added. One set of dishes receives no drug and is used as a control. After a 48-hour incubation period, at 36° C. in a 5% CO2 atmosphere, the overlay medium is removed, the cells stained as described above, and plaques counted. The counts of replicate plates are averaged, and the number of plaques emerging in the presence of each drug dilution is calculated. The reduction in plaque size caused by the concentration of the drug, as compared with the relevant control, is also measured, visually. […] A reduction in the area of the growing plaque indicates inhibition of plaque growth, i.e. inhibition of viral reproduction, caused by the drug.

cytomegalovirus (CMV) = test: CMV plaque (microplaque/ELISA) assay in human fetal fibroblast (lung) HFF cells; format: cell-based; details: at a dosage level non-toxic to mammalian cells
Procedure: The compounds of example 3, (5-aza-C*) was tested in vitro for activity against cytomegalovirus, CMV, in mammalian cells. Human fetal fibroblast (lung) HFF cells were used, in generally standard viral plaque titration methods.
Human fetal fibroblast (lung) HFF cells were used, in generally standard viral plaque titration methods. The cells were grown and maintained in Basal Medium Eagle (BME) supplemented with 0.112% sodium bicarbonate, 2 mM L-glutamine, 2 mg % neomycin and 20% (vol/vol) calf serum.
A viral plaque titration method (Roizman & Roane, 1961) was used to determine the virus titre of the CMV. 35 mm tissue culture plates were seeded with HFF 36 P5 and grown to 50-70% monolayer. […]
The cells were incubated for 72 hours at 37° C. in 5% carbon dioxide atmosphere. At 75 hours, the number of CMV infected foci (microplaques) was quantitated using enzyme linked immunosorbent assay (ELISA) using as an enzyme tag horseradish peroxidase and DAB substrate so as to stain the infected foci with a brown precipitate. […]
CMV-positive human serum was diluted 1:10 with PBS, and 0.2 ml of the diluted serum was put in each plate and the plate shaken for 30 minutes. […] Plaques were counted, and numbers of plaques per microscopic field determined.
The reading of the CMV assay was done by comparing no-drug controls to the drug treated plates. […]

[3] = tested on: human fetal fibroblasts / mammalian cells; test: Toxicity to host cells; format: cell-based; details: at the dosage level active against HSV and CMV
[4] = read-out: concentration reducing plaque numbers by 25%
[5] = read-out: concentration reducing plaque numbers by 50%
[6] = read-out: concentration reducing plaque size by 25%
[7] = read-out: concentration reducing plaque size by 50%

## Nc1ncnc2c1ncn2COC(CO)CO [9-[[2-hydroxy-1-(hydroxymethyl)ethoxy]-methyl]adenine]
[1]
  activity against herpes simplex virus (in words): active against herpes simplex virus

## O=c1[nH]c(=O)n(COC(COCc2ccccc2)COCc2ccccc2)cc1F [5F-benzyl-U*, 1-[[2-benzyloxy-1-(benzyloxymethyl)ethoxy]methyl]-5-fluorouracil]
Toxicity to host cells
  MNTC at 48 h: > 110 µg/mL
[2]
  activity against HSV (in words): showed activity against HSV
[2]; [4]
  IC25: 70 µg/mL (≈ 169 µM)
[2]; [5]
  IC50: 110 µg/mL (≈ 265 µM)
[2]; [6]
  IC25: 10 µg/mL (≈ 24.1 µM)
[2]; [7]
  IC50: 50 µg/mL (≈ 121 µM)

## Nc1ccn(COC(COCc2ccccc2)COCc2ccccc2)c(=O)n1 [dibenzyl-C*, 1-[[2-benzyloxy-1-(benzyloxymethyl)]ethoxymethyl]cytosine]
[2]
  activity against HSV (in words): exhibited activity against HSV, but to a lesser extent

## Nc1ncn(COC(CO)CO)c(=O)n1 [5-aza-C*, 5-aza-1-[[1-hydroxymethyl-[2-hydroxy]-ethoxy]methyl]cytosine]
Cytomegalovirus (CMV)
  activity against CMV (in words): active
[3]
  toxicity to mammalian cells (in words): non-toxic to mammalian cells
Toxicity to host cells
  MNTC at 48 h: > 304 µg/mL
[2]
  activity against HSV (in words): high activity against the HSV
[2]; [4]
  IC25: 8 µg/mL (≈ 37 µM)
[2]; [5]
  IC50: 30 µg/mL (≈ 139 µM)
[2]; read-out: concentration reducing plaque numbers by 75%
  IC75: 140 µg/mL (≈ 648 µM)
[2]; [6]
  IC25: 5 µg/mL (≈ 23.1 µM)
[2]; [7]
  IC50: 30 µg/mL (≈ 139 µM)
[2]; read-out: concentration reducing plaque size by 75%
  IC75: 110 µg/mL (≈ 509 µM)
[2]; listed as 5-aza-1-[[1-hydroxymethyl(2-hydroxy)ethoxy]methyl]cytosine
  activity against HSV (in words): active against herpes simplex virus HSV
